According to patent publication US20240122879A1, “COMPOSITIONS AND METHODS FOR TREATING OCULAR CHEMICAL BURNS” (OHIO STATE INNOVATION FOUNDATION, priority 2022, published 2024):
Entries after “also recorded” stand apart in the source; their conditions may differ.

Assays:
GsdmD [1] = assay: Western blot of GsdmD cleavage in isolated primary mouse neutrophils; type: cell-based; settings: primary neutrophils from mouse bone marrow; FIG. 12
Description: (§1) To further confirm neutrophils undergo pyrotposis, primary neutrophils were isolated and purified from mouse bone marrow. Isolated neutrophils underwent pyroptosis quickly after isolation followed by activation of apoptosis, as evidenced by cleaved caspase-3 (FIG. 11).
(§2) Bone marrow samples were obtained as previously described. Briefly, lower limbs were collected from euthanized mice. All attached soft tissue was removed to fully expose the femurs and tibias. An 18G needle was inserted into hollow of the bone and pulse flush buffer (2% FBS in PBS) used to flush marrow into a 15 ml sterile centrifuge tube. The solution was then filtered with a 70-100 μm filter. The solution was centrifuged at […], and the bone marrow cells were resuspended in red blood cell lysis buffer for 5 minutes.
(§3) Separation of neutrophils using density gradient centrifugation was performed as previously described (Swamydas, et al. J Vis Exp. 2013 (77):e50586). The bone marrow cells were resuspended in 1 ml of ice-cold sterile PBS. Using a 15 mL conical tube, 3 ml of Histopaque 1119 was first added followed by an overlay of 3 mL of Histopaque 1077. The bone marrow cell suspension was then overlaid on the Histopaque 1077. The samples were centrifuged for 30 min at 2,000 rpm at 25° C. Neutrophils were then at the interface of the Histopaque 1119 and Histopaque 1077 layers. […]

Caspase-3 = assay: Western blot of Caspase-3 cleavage in isolated primary mouse neutrophils; type: cell-based; settings: primary neutrophils from mouse bone marrow; FIG. 12
Description: as §1, §2, §3

mCECs = assay: Scratch wound assay of mCECs cultured with dissected corneas from treated mice; type: cell-based, mouse; settings: FIG. 3A, 3B
Procedure: The potential function of neutrophil pyroptosis in corneal wound healing was next tested. Mouse corneas were first dissected with or without injury from WT, GsdmD^−/−, Gr-1 treated, and disulfiram treated mice, and cultured the dissected corneas with mCECs. A scratch wound was then created in the mCEC.
For disulfiram treatment of mice, disulfiram was dissolved in sesame oil (12.5 mg/ml). Mice were injected 16 hours before injury through intraperitoneal injection (50 mg/kg); injection continued daily for the duration of the experiment. For Gr-1 antibody treatment, mice were injected 16 hours and immediately before injury through intraperitoneal injection (100 μg/mouse).
To induce cellular migration, an in vitro scratch test was performed using mCECs. Cells were treated with dissected corneas or cytokines when they reached confluence, were subsequently scratched with a micropipette tip, and incubated for up to 12 hrs. Images were taken at 0, 3, 6, and 9 hours after the initial scratch. Images of wound closure were quantified by using ImageJ software.

injured corneas [2] = assay: Alkali induced corneal injury: re-epithelialization / wound healing (fluorescein); type: in vivo, mice; settings: disulfiram 50 mg/kg i.p. daily from 16 h before injury, antibodies before wounding, FIG. 7C-7F
Procedure: (§4) All animal care and usage followed NIH guidelines and were in accordance with the ARVO Statement for the Use of Animals in Ophthalmic and Vision Research. Rodent studies received IACUC approval by The Ohio State University. For all corneal wound healing models, injury was induced under anesthesia, all animals received topical antibiotics, and topical and systemic analgesics were provided for at least 72 h. To induce corneal injury, a 1.5 mm filter paper soaked in 1N NaOH was applied to the axial cornea for 30 seconds. The filter paper was then removed and the cornea rinsed with PBS for two minutes. After the cornea was thoroughly rinsed, fluorescein stain was applied to the cornea to verify corneal ulceration. For disulfiram treatment of mice, disulfiram was dissolved in sesame oil (12.5 mg/ml). Mice were injected 16 hours before injury through intraperitoneal injection (50 mg/kg); injection continued daily for the duration of the experiment. For Gr-1 antibody treatment, mice were injected 16 hours and immediately before injury through intraperitoneal injection (100 μg/mouse).

injured corneas [3] = assay: Alkali induced corneal injury: corneal neovascularization, CD31 staining of corneal flat mount; type: in vivo, mice; settings: disulfiram 50 mg/kg i.p. daily, FIG. 7G, 7H
Procedure: as §4, with “μg/mouse). Dissected eye from mice were fixed in 4% PFA for 24 to 48 hours at 4° C. […]” for “μg/mouse).”

GsdmD [4] = assay: Western blot of corneal samples after alkali injury: GsdmD cleavage / pyroptosis; type: in vivo, mice; settings: FIG. 2C
Description: (§5) While neutrophil pyroptosis plays a detrimental role during corneal wound healing, the initial neutrophil infiltration is critical for removing dead corneal cells and debris, which is part of the healing process. Thus, complete depletion of neutrophil may not be the ideal option to promote normal corneal healing. Disulfiram is an FDA approved drug, which has been recently been identified as a pyroptosis inhibitor (Hu, et al. Nat Immunol. 2020 21(7):736-745). Thus, tested was whether application of disulfiram could be an effective means to promote corneal wound healing. […] To confirm treatment of disulfiram could inhibit post-injury pyroptosis, Western blot analysis was performed on corneal samples before and after injury.
(§6) All animal care and usage followed NIH guidelines and were in accordance with the ARVO Statement for the Use of Animals in Ophthalmic and Vision Research. Rodent studies received IACUC approval by The Ohio State University. For all corneal wound healing models, injury was induced under anesthesia, all animals received topical antibiotics, and topical and systemic analgesics were provided for at least 72 h. To induce corneal injury, a 1.5 mm filter paper soaked in 1N NaOH was applied to the axial cornea for 30 seconds. The filter paper was then removed and the cornea rinsed with PBS for two minutes. […]

Caspase-1 = assay: Western blot: Caspase-1 cleavage after disulfiram treatment; type: in vivo, mice; settings: FIG. 17
Description: as §5, §6

[5] = tested on: IL-1β, caspase 1 and GsdmD; settings: discussion statement following citation of Hu et al.; cited from earlier work

SMILES: CCN(CC)C(=S)SSC(=S)N(CC)CC [Disulfiram, Tetraethylthiuram disulfide]
- GsdmD cleavage in isolated neutrophils (GsdmD [1]): inhibits cleavage of GsdmD; also recorded: significantly inhibit
- Caspase-3 cleavage in isolated neutrophils (Caspase-3): not cleavage of Caspase-3
- inhibitory effects of injured corneas on mCECs migration (scratch wound closure) (mCECs): greatly reduced
- corneal wound healing / re-epithelialization (injured corneas [2]): dramatically accelerated wound healing; also recorded: improved healing outcomes; also recorded: promote the re-epithelialization
- corneal neovascularization (CNV), CD31 staining (injured corneas [3]): significantly reduced; also recorded: significantly reduce neovascularization
- cleavage of GsdmD (GsdmD-N expression) (GsdmD [4]; FIG. 17 (disulfiram), 24 hours after injury (Gr-1 antibody)): suppress cleavage
- activation of pyroptosis after corneal injury (GsdmD [4]; corneal samples after alkali injury, FIG. 17): effectively inhibited pyroptosis
- cleavage of Caspase-1 (Caspase-1): suppress cleavage
- cleavage of caspase 1 and GsdmD [5]: inhibit the cleavage of caspase 1 and GsdmD
- release of mature IL-1β [5]: inhibit the release of mature IL-1β
